The text below walks through data of patent US7678380B2, “Cosmetic treatment method for fighting against skin ageing effects” (LVMH Recherche, priority 1996, dated 2010).

Like-named read-outs stand apart in the source and are kept apart here.

In this test the test system is adhesion of normal human keratinocytes to type IV collagen. The settings on record: for percentage increase in adhesion: compared with control cultures; for A = adhesion in μg of protein per well (mean): keratinocytes of a donor, control 3.52.

Description: Coating of the Adhesion Surfaces with Type IV Collagen
Wells of microplates (Falcon) are covered with 6 μg/cm^2 of sterile type IV human collagen (from Sigma).
Each well is then incubated overnight at +4° C. with a 4 mg/ml solution of bovine albumin, BSA, from Sigma.
The wells are then rinsed twice with a phosphate buffer, PBS (phosphate buffered saline), from Gibco.
Preparation of the Cultures of Normal Human Keratinocytes
The skin fragments are incubated in 0.25% w/v trypsin for 18 hours at +4° C. to separate the dermis and epidermis and to obtain, by agitation, a suspension of epidermal cells. The trypsin is neutralized with fetal calf serum, FCS, from Gibco.
The cells are inoculated into flasks defining a surface area of 75 cm^2 and are cultured in keratinocyte proliferation medium, K-SFM, from Gibco, to the point of confluence, when they are subcultured.
The cells used for the experiments for adhesion to the collagen substrate were not subcultured beyond the first subculture (called P0 or P1).
The keratinocytes are then incubated for 30 minutes at +4° C. before the step for adhesion to the substrate coated with collagen IV is carried out.
Measurement of the Adhesion of the Keratinocytes to the Type IV Collagen
The keratinocytes are inoculated into each well at a density of 93,000 cells/cm^2 in E 199 medium from Gibco, containing 2 mM L-glutamine from Gibco and 4 mg/ml of BSA (bovine serum albumin). After incubation for one hour at +4° C., the wells are rinsed with PBS, the adhering cells are then lyzed with 0.1 N sodium hydroxide solution and the cellular proteins are then quantified by means of the calorimetric method and bicinchoninic acid (BCA from Sigma).
A calibration is performed in parallel with BSA solubilized in 0.1 N sodium hydroxide solution, enabling the optical density (OD) values to be converted to micrograms (μg) of proteins per well.
These adhesion values between treated and untreated cells were compared by the 0.7 Student t-test at the p=0.05 threshold in order to assess their level of significance.

On to `N[C@@H](CC(=O)[O-])C(=O)[O-].[Mg+2]` [Magnesium aspartate, magnesium aspartate], for which, under “0.25 mM”, the “percentage increase in adhesion” value is “+54%” and the “A = adhesion in μg of protein per well (mean)” value (“A = adhesion … per well (mean)” for short) is recorded as 5.39 μg of protein per well.
As for `[Cl-].[Cl-].[Mg+2]` [Magnesium chloride, magnesium chloride], the “A = adhesion … per well (mean)” value (0.25 mM) is reported as 4.32 μg of protein per well, the “A = adhesion … per well (mean)” value (0.5 mM) is on record as 4.54 μg of protein per well and the “A = adhesion … per well (mean)” value (1 mM) is on record as 4.57 μg of protein per well. Besides, the “percentage increase in adhesion” value (1 mM) was “+31%”.
